A value given as a limit tells only on which side of the number the result lay.

For this test, the system named is Endogenous Huntingtin Protein. As to the kind of experiment: Endogenous Huntingtin Protein Assay (ELISA-based MSD electrochemiluminescence). It counts as cell-based. The note with it: Table 1. The essentials: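 Huntingtin was captured overnight at 4 °C on plates coated with 1 μg/mL MW1 (polyQ-expanded) or MAB2166 antibody and BSA-blocked. Detection used a rabbit monoclonal and then a SULFO-TAG goat anti-rabbit antibody (0.25 μg/mL, 1 h each, room temperature). Signal was read by electrochemiluminescence.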
(An ELISA detects its analyte on a solid surface through an enzyme-linked reagent.)
Broadly, the IC50 is the concentration that gives 50% inhibition. A low value points to greater potency in that assay. Take `Cc1cn2cc(-c3ncc4nc(N(C)C5CC6CCC(C5)N6)sc4n3)cc(F)c2n1` (stereo not drawn) [Compound 217, N-[(3-exo)-8-azabicyclo[3.2.1]oct-3-yl]-5-(8-fluoro-2-methylimidazo[1,2-a]pyridin-6-yl)-N-methyl[1,3]thiazolo[5,4-d]pyrimidin-2-amine]: the half-inhibitory concentration (IC50) is no more than 100 nM.

`CN1CC=C(c2ccc3nc(-c4ccc5nn(C)cc5c4)sc3c2)CC1` [Compound 6, 2-(2-methyl-2H-indazol-5-yl)-6-(1-methyl-1,2,3,6-tetrahydropyridin-4-yl)-1,3-benzothiazole] gave an IC50 of 1000 to 3000 nM. `Cn1cc2cc(-c3ncc4nc(C5CCNCC5)sc4n3)cc(C#N)c2n1` [Compound 109, 2-methyl-5-[2-(piperidin-4-yl)[1,3]thiazolo[5,4-d]pyrimidin-5-yl]-2H-indazole-7-carbonitrile] returned a half-maximal inhibitory concentration (IC50) of 100 to 500 nM. As for `CN(c1nc2cnc(-c3cc(C#N)c4nn(C)cc4c3)nc2s1)C1CC(C)(C)NC(C)(C)C1` [Compound 123, 2-methyl-5-{2-[methyl(2,2,6,6-tetramethylpiperidin-4-yl)amino][1,3]thiazolo[5,4-d]pyrimidin-5-yl}-2H-indazole-7-carbonitrile], the half-inhibitory concentration (IC50) is no more than 100 nM. `COc1cc(-c2cc(C)c3nn(C)cc3c2)cc2sc(C3CCNCC3)nc12` [Compound 99, 6-(2,7-dimethyl-2H-indazol-5-yl)-4-methoxy-2-(piperidin-4-yl)-1,3-benzothiazole]: the half-inhibitory concentration (IC50) was in the range of 1000 to 3000 nM. For `Cc1cn2nc(-c3cc(F)c4nc(C5CCNCC5)sc4c3)cc(CC(=O)O)c2n1` [Compound 221, {6-[4-fluoro-2-(piperidin-4-yl)-1,3-benzothiazol-6-yl]-2-methylimidazo[1,2-b]pyridazin-8-yl]acetic acid], the IC50 is no more than 100 nM. `CN(c1nc2cnc(-c3cc(C#N)c4nn(C)cc4c3)cc2s1)[C@@H]1C[C@H]2CC[C@@H](C1)N2C` [Compound 238, 2-methyl-5-(2-{methyl[(3-exo)-8-methyl-8-azabicyclo[3.2.1]oct-3-yl]amino}[1,3]thiazolo[4,5-c]pyridin-6-yl)-2H-indazole-7-carbonitrile]: the half-maximal inhibitory concentration (IC50) was no more than 100 nM.

`Cn1cc2cc(-c3cc(Cl)c4nc(C5=CCNCC5)sc4c3)cc(C#N)c2n1` [Compound 154, 5-[4-chloro-2-(1,2,3,6-tetrahydropyridin-4-yl)-1,3-benzothiazol-6-yl]-2-methyl-2H-indazole-7-carbonitrile] gave an IC50 of 1000 to 3000 nM. `Cc1cn2cc(-c3ncc4nc(N(C)C5CC6(C)CC[C@](C)(C5)N6)sc4n3)cc(C#N)c2n1` (stereo partly drawn) [Compound 255, 6-(2-{[(1R)-1,5-dimethyl-8-azabicyclo[3.2.1]oct-3-yl](methyl)amino}[1,3]thiazolo[5,4-d]pyrimidin-5-yl)-2-methylimidazo[1,2-a]pyridine-8-carbonitrile]: the IC50 was no more than 100 nM. `Cn1cc2cc(-c3ccc4nc(N5CCNCC5)sc4c3)ccc2n1` [Compound 7, 6-(2-methyl-2H-indazol-5-yl)-2-(piperazin-1-yl)-1,3-benzothiazole] gave an IC50 of 1000 to 3000 nM.

Regarding `Cc1cn2cc(-c3cc4sc(N(C)C5CC(C)(C)NC(C)(C)C5)nc4cn3)cc(C)c2n1` [Compound 88, 6-(2,8-dimethylimidazo[1,2-a]pyridin-6-yl)-N-methyl-N-(2,2,6,6-tetramethylpiperidin-4-yl)[1,3]thiazolo[4,5-c]pyridin-2-amine], the half-maximal inhibitory concentration (IC50) is no more than 100 nM. For `Cc1cn2cc(-c3ccc4nc(N(C)C5CC(C)(C)NC(C)(C)C5)sc4c3)cc(C(F)(F)F)c2n1` [Compound 96, N-methyl-6-[2-methyl-8-(trifluoromethyl)imidazo[1,2-a]pyridin-6-yl]-N-(2,2,6,6-tetramethylpiperidin-4-yl)-1,3-benzothiazol-2-amine], the IC50 lay in the range of 100 to 500 nM. As for `CN1CC(N(C)c2nc3nnc(-c4ccc(-c5cn[nH]c5)cc4O)cc3s2)C1` [Compound 343, 2-{6-[methyl(1-methylazetidin-3-yl)amino][1,3]thiazolo[4,5-c]pyridazin-3-yl}-5-(1H-pyrazol-4-yl)phenol], the IC50 lay in the range of 100 to 500 nM. Compound `Cc1cn2cc(-c3cc4sc(N(C)C5CC6CCC(C5)N6)nc4cn3)cc(F)c2n1` (stereo not drawn) [Compound 204, N-[(3-exo)-8-azabicyclo[3.2.1]oct-3-yl]-6-(8-fluoro-2-methylimidazo[1,2-a]pyridin-6-yl)-N-methyl[1,3]thiazolo[4,5-c]pyridin-2-amine] showed an IC50 of no more than 100 nM. The compound `Cc1cn2cc(-c3cc4sc(N(C)C5CC6(C)CCC(C)(C5)N6)nc4cn3)cc(C#N)c2n1` [Compound 285, 6-(2-{[(1R,3s,5S)-1,5-dimethyl-8-azabicyclo[3.2.1]octan-3-yl](methyl)amino}[1,3]thiazolo[4,5-c]pyridin-6-yl)-2-methylimidazo[1,2-a]pyridine-8-carbonitrile] came in with a half-inhibitory concentration (IC50) of no more than 100 nM. For `CN1CCC2(CC1)CCN2c1nc2nnc(-c3ccc(-c4cn[nH]c4)cc3O)cc2s1` [Compound 339, 2-[6-(7-methyl-1,7-diazaspiro[3.5]nonan-1-yl)[1,3]thiazolo[4,5-c]pyridazin-3-yl]-5-(1H-pyrazol-4-yl)phenol] the value was no more than 100 nM; for `Cc1cn2nc(-c3ccc4nc(C5CCNCC5)sc4c3)ccc2n1` [Compound 97, 2-methyl-6-[2-(piperidin-4-yl)-1,3-benzothiazol-6-yl]imidazo[1,2-b]pyridazine], no more than 100 nM; for `COc1cc(-c2cc3sc(N(C)C4CC5CCCC(C4)N5)nc3cn2)cc2cn(C)nc12` (centres unmarked) [Compound 264, N-(9-azabicyclo[3.3.1]non-3-yl)-6-(7-methoxy-2-methyl-2H-indazol-5-yl)-N-methyl[1,3]thiazolo[4,5-c]pyridin-2-amine], no more than 100 nM. The compound `Cc1cc(-c2cc3sc(N(C)C4CC(C)(C)NC(C)(C)C4)nc3cn2)cc2cn(C)nc12` [Compound 31, 6-(2,7-dimethyl-2H-indazol-5-yl)-N-methyl-N-(2,2,6,6-tetramethylpiperidin-4-yl)[1,3]thiazolo[4,5-c]pyridin-2-amine] yielded an IC50 of no more than 100 nM. To `CN(c1nc2ncc(-c3cc(C#N)c4nn(C)cc4c3)nc2s1)C1CC(C)(C)NC(C)(C)C1` [Compound 140, 2-methyl-5-{2-[methyl(2,2,6,6-tetramethylpiperidin-4-yl)amino][1,3]thiazolo[4,5-b]pyrazin-6-yl)-2H-indazole-7-carbonitrile] belongs no more than 100 nM. Consider `Cc1cc2nc(-c3cc(F)c4nc(N(C)C5CCNCC5)sc4c3)ccn2n1` [Compound 250, 4-fluoro-N-methyl-6-(2-methylpyrazolo[1,5-a]pyrimidin-5-yl)-N-(piperidin-4-yl)-1,3-benzothiazol-2-amine], for which the half-maximal inhibitory concentration (IC50) was in the range of 100 to 500 nM.

The compound `CC[C@]12CC[C@](CC)(CC(N(C)c3nc4cnc(-c5cc(C#N)c6nc(C)cn6c5)nc4s3)C1)N2` (stereo partly drawn) [Compound 303, 6-(2-{[(1R,3r,5S)-1,5-diethyl-8-azabicyclo[3.2.1]octan-3-yl](methyl)amino}[1,3]thiazolo[5,4-d]pyrimidin-5-yl)-2-methylimidazo[1,2-a]pyridine-8-carbonitrile] had an IC50 of no more than 100 nM. As for `Cc1cn2cc(-c3cc4sc(N(C)C5CCNCC5)nc4cn3)cc(C#N)c2n1` [Compound 198, 2-methyl-6-{2-[methyl(piperidin-4-yl)amino][1,3]thiazolo[4,5-c]pyridin-6-yl}imidazo[1,2-a]pyridine-8-carbonitrile], the half-maximal inhibitory concentration (IC50) was no more than 100 nM. Take `CN(c1nc2ncc(-c3ccc4nn(C)cc4c3)cc2s1)C1CC(C)(C)NC(C)(C)C1` [Compound 16, N-methyl-6-(2-methyl-2H-indazol-5-yl)-N-(2,2,6,6-tetramethylpiperidin-4-yl)[1,3]thiazolo[4,5-b]pyridin-2-amine]: the IC50 is 500 to 1000 nM. In the case of `Cc1cn2nc(-c3cc(F)c4nc(C5CCNCC5)sc4c3)cc(Oc3ccccc3)c2n1` [Compound 195, 6-[4-fluoro-2-(piperidin-4-yl)-1,3-benzothiazol-6-yl]-2-methyl-8-phenoxyimidazo[1,2-b]pyridazine], the half-inhibitory concentration (IC50) is no more than 100 nM. `Cn1cc2cc(-c3cc(F)c4nc(C5=CCNCC5)sc4c3)ccc2n1` [Compound 72, 4-fluoro-6-(2-methyl-2H-indazol-5-yl)-2-(1,2,3,6-tetrahydropyridin-4-yl)-1,3-benzothiazole] showed an IC50 of 100 to 500 nM.

For the compound `CN(c1nc2ncc(-c3ccc(-c4cn[nH]c4)c(F)c3F)nc2s1)C1CC(C)(C)NC(C)(C)C1` [Compound 161, 6-[2,3-difluoro-4-(1H-pyrazol-4-yl)phenyl]-N-methyl-N-(2,2,6,6-tetramethylpiperidin-4-yl)[1,3]thiazolo[4,5-b]pyrazin-2-amine], the IC50 lay within 1000 to 3000 nM.

For the compound `CN(c1nc2ccc(-c3cc(F)c4nn(C)cc4c3)nc2s1)C1CC2CCCC(C1)N2` (centres unmarked) [Compound 295, N-(9-azabicyclo[3.3.1]nonan-3-yl)-5-(7-fluoro-2-methyl-2H-indazol-5-yl)-N-methyl[1,3]thiazolo[5,4-b]pyridin-2-amine], the IC50 is 100 to 500 nM. Regarding `Cc1cn2nc(-c3cc(F)c4nc(N(C)C5CC(C)(C)NC(C)(C)C5)sc4c3)cc(C)c2n1` [Compound 127, 6-(2,8-dimethylimidazo[1,2-b]pyridazin-6-yl)-4-fluoro-N-methyl-N-(2,2,6,6-tetramethylpiperidin-4-yl)-1,3-benzothiazol-2-amine], the IC50 was no more than 100 nM. `CN(c1nc2nnc(-c3ccc(-c4cn[nH]c4)cc3O)cc2s1)[C@@H]1CCNC[C@H]1F` [Compound 365, 2-(6-{[(3R,4R)-3-fluoropiperidin-4-yl](methyl)amino}[1,3]thiazolo[4,5-c]pyridazin-3-yl)-5-(1H-pyrazol-4-yl)phenol] showed an IC50 of 100 to 500 nM. `Cc1cn2cc(-c3ncc4nc(N(C)C5CCNCC5)sc4n3)cc(C#N)c2n1` [Compound 196, 2-methyl-6-{2-[methyl(piperidin-4-yl)amino][1,3]thiazolo[5,4-d]pyrimidin-5-yl}imidazo[1,2-a]pyridine-8-carbonitrile] had a 50% inhibitory concentration (IC50) of no more than 100 nM.

As to `Cc1cn2nc(-c3cc(F)c4nc(N(C)C5CCNCC5)sc4c3)cc(C)c2n1` [Compound 186, 6-(2,8-dimethylimidazo[1,2-b]pyridazin-6-yl)-4-fluoro-N-methyl-N-(piperidin-4-yl)-1,3-benzothiazol-2-amine], the concentration for half-maximal inhibition (IC50) was no more than 100 nM.

Source of the values: patent US12139499B2, “Heteroaryl compounds for treating Huntington's disease” (PTC THERAPEUTICS, INC., priority 2018, dated 2024).
